From patent publication US9204653B2, “5-fluoro pyrimidine derivatives” (DOW AGROSCIENCES LLC, priority 2008, dated 2015)
Read-outs that look alike come from different tables or passages of the source.

System: Mycosphaerella graminicola; Anamorph: Septoria tritici; Bayer Code SEPTTR
Test: Leaf blotch of wheat, foliar fungicide treatment, one day protectant (1DP) or three day curative (3DC)
Assay type: in vivo, Septoria tritici on wheat plants (variety Yuma)
Settings: Zymoseptoria tritici, percent control rating; for pest or weed control at 100 ppm: read-out: SEPTTR 3DC 100 ppm
[1] = 24 h, one day protectant (1DP), 25 ppm (first 1DP column), read-out: SETTTR 1DP 25 ppm
[2] = 24 h, one day protectant (1DP), 25 ppm as printed (second 1DP column), read-out: SETTTR 1DP 25 ppm
[3] = 72 h, three day curative (3DC), 25 ppm, read-out: SEPTTR 3DC 25 ppm

| SMILES | pest or weed control at 25 ppm [1] [%] | pest or weed control at 25 ppm [2] [%] | pest or weed control at 25 ppm [3] [%] | pest or weed control at 100 ppm (72 h, three day curative (3DC)) [%] |
| --- | --- | --- | --- | --- |
| O=S(=O)(Nc1nc(OCc2ccccc2)ncc1F)c1ccccc1 [Compound 1010] | 0 to 25 | 0 to 25 | 0 to 25 | 0 to 25 |
| COc1cccc(COc2ncc(F)c(NS(C)(=O)=O)n2)c1 [Compound 1011] | 0 to 25 | 0 to 25 | 0 to 25 | 0 to 25 |
| COc1cccc(COc2ncc(F)c(NS(=O)(=O)C(C)C)n2)c1 [Compound 1012] | 0 to 25 | 0 to 25 | 0 to 25 | 0 to 25 |
| COc1cccc(COc2ncc(F)c(NS(=O)(=O)c3ccccc3)n2)c1 [Compound 1013] | 0 to 25 | 0 to 25 | 0 to 25 | 0 to 25 |
| Fc1ccc(COc2ncc(F)c(/N=N/c3ccccc3Cl)n2)cc1 [Compound 1014] | 0 to 25 | 0 to 25 | 0 to 25 | 76 to 100 |
| COc1nn(C)c(C(F)(F)F)c1S(=O)(=O)Nc1nc(OCc2ccc(C)cc2)ncc1F [Compound 1015] | 0 to 25 | 0 to 25 | 26 to 50 | 76 to 100 |
| COc1ccnc(Cl)c1S(=O)(=O)Nc1nc(OCc2ccc(C)cc2)ncc1F [Compound 1016] | 0 to 25 | 0 to 25 | 51 to 75 | 51 to 75 |
| COc1ccc(/C(C)=N/Nc2nc(OC)ncc2F)cc1 [Compound 1017] | 0 to 25 | 26 to 50 | 0 to 25 | 51 to 75 |
| CCC(C)/C(C)=N/Nc1nc(OC)ncc1F (stereo not drawn) [Compound 1018] | 0 to 25 | 0 to 25 | 0 to 25 | 0 to 25 |
| COc1ncc(F)c(N/N=C(\C)c2cc3ccccc3o2)n1 [Compound 1019] | 26 to 50 | 26 to 50 | 0 to 25 | 0 to 25 |
| COc1ncc(F)c(N/N=C/c2cc(C)nn2C)n1 [Compound 1020] | 0 to 25 | 0 to 25 | 26 to 50 | 0 to 25 |
| CCC(/C=N/Nc1nc(OC)ncc1F)CC [Compound 1021] | 0 to 25 | 26 to 50 | 26 to 50 | 26 to 50 |
| COc1ncc(F)c(N/N=C/C2CC2)n1 [Compound 1022] | 0 to 25 | 0 to 25 | 0 to 25 | 26 to 50 |
| COc1ncc(F)c(N/N=C/c2ccco2)n1 [Compound 1023] | 0 to 25 | 0 to 25 | 0 to 25 | 0 to 25 |
| COc1ncc(F)c(N/N=C/c2cccs2)n1 [Compound 1024] | 0 to 25 | 0 to 25 | 0 to 25 | 0 to 25 |
| COc1ncc(F)c(N/N=C(\C)c2sc(C)nc2C)n1 [Compound 1025] | 0 to 25 | 0 to 25 | 26 to 50 | 0 to 25 |
| COc1ncc(F)c(N/N=C(\C)c2ccc(F)cc2)n1 [Compound 1026] | 26 to 50 | 26 to 50 | 0 to 25 | 26 to 50 |

| SMILES | pest or weed control at 25 ppm [1] [%] | pest or weed control at 25 ppm [2] [%] | pest or weed control at 25 ppm [3] [%] | pest or weed control at 100 ppm (72 h, three day curative (3DC)) [%] |
| --- | --- | --- | --- | --- |
| Cc1ccc(COc2ncc(F)c(NS(=O)(=O)c3c(Br)cnn3C)n2)cc1 [Compound 1027] | 0 to 25 | 0 to 25 | 0 to 25 | 0 to 25 |
| Fc1ccccc1NNc1nc(OCc2ccccc2)ncc1F [Compound 1028] | 0 to 25 | 0 to 25 | 0 to 25 | 0 to 25 |
| Fc1cnc(OCc2ccccc2)nc1NNc1cccc(C(F)(F)F)c1 [Compound 1029] | 0 to 25 | 0 to 25 | 0 to 25 | 0 to 25 |
| Cc1ccc(COc2ncc(F)c(NNc3ccc(Br)cc3)n2)cc1 [Compound 1030] | 0 to 25 | 0 to 25 | 0 to 25 | 0 to 25 |
| COc1cccc(COc2ncc(F)c(NNc3cc(C)nc(C)n3)n2)c1 [Compound 1032] | 26 to 50 | 26 to 50 | 0 to 25 | 0 to 25 |
| C/C=C(C)/C=N/Nc1nc(OC)ncc1F [Compound 1033] | 0 to 25 | 0 to 25 | 0 to 25 | 26 to 50 |
| COc1ncc(F)c(NNc2ccccc2Cl)n1 [Compound 1034] | 0 to 25 | 0 to 25 | 0 to 25 | 0 to 25 |
| Fc1cnc(OCc2ccccc2)nc1NNc1ccc(Br)cc1 [Compound 1035] | 0 to 25 | 0 to 25 | 0 to 25 | 0 to 25 |
| Cc1ccc(C)c(NNc2nc(OCc3ccccc3)ncc2F)c1 [Compound 1036] | 0 to 25 | 0 to 25 | 0 to 25 | 0 to 25 |
| Fc1cnc(OCc2ccccc2)nc1NNc1ccc(Cl)c(Cl)c1 [Compound 1037] | 0 to 25 | 26 to 50 | 0 to 25 | 0 to 25 |
| Fc1cnc(OCc2ccccc2)nc1NNc1nccc(C(F)(F)F)n1 [Compound 1038] | 0 to 25 | 0 to 25 | 0 to 25 | 0 to 25 |
| Cc1ccc(COc2ncc(F)c(NNc3ccccc3F)n2)cc1 [Compound 1039] | 0 to 25 | 0 to 25 | 0 to 25 | 0 to 25 |
| Cc1ccc(COc2ncc(F)c(NNc3ccc(Cl)nn3)n2)cc1 [Compound 1040] | 0 to 25 | 0 to 25 | 0 to 25 | 0 to 25 |
| Cc1ccc(COc2ncc(F)c(NNc3nccc(C(F)(F)F)n3)n2)cc1 [Compound 1041] | 0 to 25 | 0 to 25 | 0 to 25 | 0 to 25 |
| Fc1ccc(COc2ncc(F)c(NNc3ccccc3F)n2)cc1 [Compound 1042] | 0 to 25 | 0 to 25 | 0 to 25 | 26 to 50 |
| Fc1ccc(COc2ncc(F)c(NNc3nccc(C(F)(F)F)n3)n2)cc1 [Compound 1043] | 0 to 25 | 0 to 25 | 0 to 25 | 0 to 25 |
